From article PMC6917776, “Discovery of a chemical probe for PRDM9” (Nature Communications, 2019)

Tested on: H3K4me3 at known PRDM9 binding loci and control TSS loci
Experiment: ChIP-qPCR of H3K4me3 in PRDM9-transfected HEK293T cells
Type: cell-based, human
Conditions: for dCq (IP-Input): H3K4me3 antibody, Replicate 1; for 2^-dCq (H3K4me3 ChIP-qPCR, IP relative to H3) / H3K4me3 ChIP-qPCR 2^-dCq (IP-Input): Replicate 2; for 2^-dCq (H3K4me3 ChIP-qPCR, IP relative to H3): Antibody H3K4me3; for H3K4me3 ChIP-qPCR 2^-dCq (IP-Input): chr2:40281930-40282015 Intragenic (SLC8A1-AS1), Figure 7 C, H3K4me3 antibody relative to H3
Protocol: ChIP-qPCR assays were then conducted on known PRDM9 binding loci[26]. Ectopic expression of PRDM9^WT increased trimethylation of H3K4 (H3K4me3) at previously described PRDM9-specific intragenic and intergenic regions[26] (Fig. 7; Supplementary Fig. 12). […] The observed increases in H3K4me3 levels at intragenic and intergenic regions are therefore due directly to PRDM9 PR domain-dependent methylation activity, rather than through recruitment of other H3K4 methyltransferases or other indirect mechanisms.
ChIP qPCR analyses of H3K4me3 methylation levels of known PRDM9-bound loci and control loci. […] Concentrations used (µM) are indicated below each plot. (a–d) represent reported loci of PRDM9 methylation; (e, f) are transcriptional start sites (TSSs) which are not known loci of PRDM9 methylation. Data are normalized to total H3 and are presented as the mean ± upper and lower limits from two replicates. Representative plots of two independent experiments are shown in this figure. The coordinates and the genomic features associated with the assayed loci are indicated above each plot. Left Tailed Student's t-tests were performed by comparing DMSO (0 µM) treated cells to compound treated cells that have been transfected with the same plasmids. *p-value < 0.05 and **p-value < 0.01. Note that here we show a representative of two independent experiments (mean ± s.d of technical replicates) for our ChIP-qPCR experiments. Data obtained using this technique are inherently noisy due to stochastic differences in gene activity/histone positioning. Data are thus typically presented as representative rather than averaged. Source data are provided as a Source Data file.
HEK293T cells were transfected with 37.5 μg empty pcDNA3.1(+) vector (Invitrogen), or the same vector expressing either wild-type PRDM9 (PRDM9^WT) or a catalytically dead PRDM9 mutant (PRDM9^Mut) and 75 μL of Lipofectamine 2000 (Invitrogen) in 6 mL of Opti-MEM (GIBCO) for 48 h. […] ChIP assays were then performed as previously described. Briefly, cells were fixed in 1% formaldehyde and the fixation reaction was quenched in a final concentration of 0.1 M glycine. Cell pellets were first lysed in LB1 (50 mM HEPES-KOH pH 7.5, 140 mM NaCl, 1 mM EDTA, 10% Glycerol, 0.5% Igepal, 0.25% TritonX), washed once in LB2 Buffer (10 mM Tris-HCl pH 8, 200 mM NaCl, 1 mM EDTA, 0.5 mM EGTA) and finally sonicated in LB3 buffer (10 mM Tris-HCl pH 8, 100 mM NaCl, 1 mM EDTA, 0.5 mM EGTA, 0.1% Sodium deoxycholate, 0.5% N-laurosylsarcosine) using a bioruptor (Diagenode). Thereafter, 50 μg of chromatin was subjected to ChIP using the following antibodies purchased from Abcam: α-H3K4me3 (1:200, ab8580, lot:GR3207339-1) and α-H3 (1:250, ab1791, lot:GR300978-4). After extensive washing in RIPA wash buffer (50 mM HEPES-KOH pH 7.6, 100 mM LiCl, 1 mM EDTA, 1% Igepal, 0.7% Sodium Deoxycholate), DNA was eluted from beads. The eluted DNA was treated with RNase A and Proteinase K and purified using the QIAGEN PCR purification kit. qPCR was then carried out targeting the indicated loci (Supplementary Table 3). Upper and lower limits were defined by |2^−(dCq±s) − 2^−(∆Cq)|, where s = √((Standard deviation of Input Cq)^2 + (Standard deviation of Target Cq)^2). […]
formation. ChIP qPCR analyses of H3K4me3 methylation levels at known PRDM9-bound and control loci. Cells transfected with empty vector (negative control) or vectors overexpressing either wild-type PRDM9 (PRDM9 WT) or catalytically dead PRDM9 (PRDM9 MUT) were […]
Panels a-d represent reported loci of […]
(1 picture or pasted object on this page, not shown here)
PRDM9 methylation; e-f are TSSs which are not known sites of PRDM9 methylation. Data are normalized to total H3 and are presented as the mean ± upper and lower limits from two […]

## COc1cc(OC)cc(-c2noc(N3CCN(C)C4(CCN(c5ccnc(C)c5)CC4)C3)n2)c1 [MRK-740]
chr8:49932778-49932856 (Intergenic), PRDM9
  dCq (IP-Input): -2.203
chr8:49932778-49932856 (Intergenic), PRDM9_Cat.Dead
  dCq (IP-Input): 1.033
chr12:6643945-6644023 TSS (GAPDH), Empty Vector
  dCq (IP-Input): -5.504
chr12:6643945-6644023 TSS (GAPDH), PRDM9
  dCq (IP-Input): -5.409
chr12:6643945-6644023 TSS (GAPDH), PRDM9_Cat.Dead
  dCq (IP-Input): -6.466
chr19:8510167-8510261 TSS (HNRNPM), Empty Vector
  dCq (IP-Input): -5.657
chr19:8510167-8510261 TSS (HNRNPM), PRDM9
  dCq (IP-Input): -5.412
chr19:8510167-8510261 TSS (HNRNPM), PRDM9_Cat.Dead
  dCq (IP-Input): -6.463
HEK293T transfected with wild-type PRDM9, 48 h
  H3K4me3 levels at tested TSS sites (ChIP-qPCR, in words): No significant reduction in H3K4me3 levels
HEK293T transfected with wild-type PRDM9, 48 h, various concentrations
  H3K4me3 levels at PRDM9-dependent intragenic and intergenic loci (ChIP-qPCR, in words): abrogated in a concentration-dependent manner in three out of four PRDM9-dependent loci
Figure 7 D chr3:165514798-165514911 Intragenic (BCHE), Plasmid Empty Vector, Drug Conc. 2.5
  2^-dCq (H3K4me3 ChIP-qPCR, IP relative to H3): 0.6821
Figure 7 D chr3:165514798-165514911 Intragenic (BCHE), Plasmid Empty Vector, Drug Conc. 5
  2^-dCq (H3K4me3 ChIP-qPCR, IP relative to H3): 0.9187
Figure 7 D chr3:165514798-165514911 Intragenic (BCHE), Plasmid Empty Vector, Drug Conc. 10
  2^-dCq (H3K4me3 ChIP-qPCR, IP relative to H3): 0.5228
Figure 7 D chr3:165514798-165514911 Intragenic (BCHE), Plasmid PRDM9WT, Drug Conc. 2.5
  2^-dCq (H3K4me3 ChIP-qPCR, IP relative to H3): 6.769
Figure 7 D chr3:165514798-165514911 Intragenic (BCHE), Plasmid PRDM9WT, Drug Conc. 5
  2^-dCq (H3K4me3 ChIP-qPCR, IP relative to H3): 7.878
Figure 7 D chr3:165514798-165514911 Intragenic (BCHE), Plasmid PRDM9WT, Drug Conc. 10
  2^-dCq (H3K4me3 ChIP-qPCR, IP relative to H3): 3.468
Figure 7 E chr12:6643945-6644023 TSS (GAPDH), Plasmid Empty Vector, Drug Conc. 2.5
  2^-dCq (H3K4me3 ChIP-qPCR, IP relative to H3): 49.5681
Figure 7 E chr12:6643945-6644023 TSS (GAPDH), Plasmid Empty Vector, Drug Conc. 5
  2^-dCq (H3K4me3 ChIP-qPCR, IP relative to H3): 83.0384
Figure 7 E chr12:6643945-6644023 TSS (GAPDH), Plasmid Empty Vector, Drug Conc. 10
  2^-dCq (H3K4me3 ChIP-qPCR, IP relative to H3): 114.864
Figure 7 E chr12:6643945-6644023 TSS (GAPDH), Plasmid PRDM9WT, Drug Conc. 2.5
  2^-dCq (H3K4me3 ChIP-qPCR, IP relative to H3): 64.1133
Figure 7 E chr12:6643945-6644023 TSS (GAPDH), Plasmid PRDM9WT, Drug Conc. 5
  2^-dCq (H3K4me3 ChIP-qPCR, IP relative to H3): 130.72
Figure 7 E chr12:6643945-6644023 TSS (GAPDH), Plasmid PRDM9WT, Drug Conc. 10
  2^-dCq (H3K4me3 ChIP-qPCR, IP relative to H3): 21.1787
Figure 7 F chr19:8510167-8510261 TSS (HNRNPM), Plasmid Empty Vector, Drug Conc. 2.5
  2^-dCq (H3K4me3 ChIP-qPCR, IP relative to H3): 123.77
Figure 7 F chr19:8510167-8510261 TSS (HNRNPM), Plasmid Empty Vector, Drug Conc. 5
  2^-dCq (H3K4me3 ChIP-qPCR, IP relative to H3): 107.435
Figure 7 F chr19:8510167-8510261 TSS (HNRNPM), Plasmid Empty Vector, Drug Conc. 10
  2^-dCq (H3K4me3 ChIP-qPCR, IP relative to H3): 99.1079
Figure 7 F chr19:8510167-8510261 TSS (HNRNPM), Plasmid PRDM9WT, Drug Conc. 2.5
  2^-dCq (H3K4me3 ChIP-qPCR, IP relative to H3): 68.6717
Figure 7 F chr19:8510167-8510261 TSS (HNRNPM), Plasmid PRDM9WT, Drug Conc. 5
  2^-dCq (H3K4me3 ChIP-qPCR, IP relative to H3): 143.684
Figure 7 F chr19:8510167-8510261 TSS (HNRNPM), Plasmid PRDM9WT, Drug Conc. 10
  2^-dCq (H3K4me3 ChIP-qPCR, IP relative to H3): 36.5414
Empty Vector, Drug Conc. 2.5
  H3K4me3 ChIP-qPCR 2^-dCq (IP-Input): 0.6992
Empty Vector, Drug Conc. 5
  H3K4me3 ChIP-qPCR 2^-dCq (IP-Input): 0.9795
Empty Vector, Drug Conc. 10
  H3K4me3 ChIP-qPCR 2^-dCq (IP-Input): 0.6781
PRDM9WT, Drug Conc. 2.5
  H3K4me3 ChIP-qPCR 2^-dCq (IP-Input): 6.293
PRDM9WT, Drug Conc. 5
  H3K4me3 ChIP-qPCR 2^-dCq (IP-Input): 5.934
